The numbers were not newly measured in patent publication US7618650B2, “Combination of a hypnotic agent and substituted bis aryl and heteroaryl compound and therapeutic application thereof” (Aventis Pharmaceuticals Inc, priority 2005, dated 2009), which cites them from elsewhere.

The conditions of the data set: average dosage between 5 and 10 mg in a conventional formulation.

Regarding `Cc1ccc(-c2nc3ccc(C)cn3c2CC(=O)N(C)C)cc1` [Zolpidem, zolpidem], the “half life, average value” is recorded as “about 2.4 hours”.
